Source: patent US20210283078A1, “Treatment of cholestatic pruritus” (CymaBay Therapeutics, Inc., priority 2017, published 2021)
Where two headings read alike, the source gives them in different places.

Experiments:
[1] = test system: PBC patients with pruritus; details: Phase 2a; cited from earlier work
[2] = test system: PBC patients; details: 12-month trial, cited from earlier work
[3] = test system: adult subjects with PBC; experiment: Example 1: High dose trial in PBC (NCT02609048); assay type: in vivo, human; details: for cases of asymptomatic increases in transaminases: reversible on cessation, no elevation of total bilirubin
Text: (§1) The trial subjects were adult, male or female, with a diagnosis of PBC by at least two of the following three criteria: (a) a history of alkaline phosphatase (ALP) above the upper limit of normal (ULN) for at least six months, (b) positive anti-mitochondrial antibody titers >1/40 on immunofluorescence or M2 positive by enzyme linked immunosorbent assay or positive PBC-specific antinuclear antibodies, and (c) documented liver biopsy result consistent with PBC, on a stable and recommended dose of UDCA for the past twelve months, and ALP≥1.67×ULN. Exclusion criteria included AST or ALT≥3×ULN, total bilirubin (TBIL)≥2×ULN, autoimmune hepatitis or a history of chronic viral hepatitis, PSC, the current use of fibrates or simvastatin, the use of colchicine, methotrexate, azathioprine, or systemic steroids in the previous two months, the use of an experimental treatment for PBC, and the use of an experimental or unapproved immunosuppressant. […] Pruritus was assessed using VAS, 5-D itch, and PBC-40. During the study, three cases of asymptomatic increases in transaminases were observed (two in the 200 mg and one in the 50 mg groups): all were reversible on cessation of treatment and were not accompanied by elevation of total bilirubin. Since the study had already shown a clear efficacy signal, the study was discontinued.

[4] = test system: adult subjects with PBC; experiment: Example 2: Low-dose trial in PBC (NCT02955602), pruritus by VAS; assay type: in vivo, human; details: for baseline median VAS: subjects with VAS>0 at baseline; for median change in VAS: week 26
Text: as §1
At 12 weeks, the results of pruritus assessment by VAS (0-100 scale) were as follows:
37 subjects with VAS>0 at baseline were analysed in the interim analysis at 26 weeks: 18 subjects in the 5/10 mg group and 19 in the 10 mg group. Baseline median VAS were 15 (range 1-68) and 50 (range 5-90) in the 5/10 mg and 10 mg groups, respectively. At week 26, median changes in VAS were −50% and −55% in the 5/10 mg and 10 mg groups, respectively.

[5] = test system: adult subjects with PSC, PFIC, or AS; experiment: Example 3: treatment of subjects with hepatobiliary disease associated with pruritus; assay type: in vivo, human; details: 1, 2, 5, and 10 mg/day oral
Protocol: Subjects are permitted their usual other medications, including UDCA. […] At each visit, the subjects are assessed for cholestatic symptoms and biomarkers, and assessed for cholestatic pruritus. The subjects also maintain health diaries, which are reviewed at each visit.

[6] = test system: patients with cholestatic pruritus; details: several studies; cited from earlier work
[7] = test system: patients with cholestatic pruritus; details: more recent study; cited from earlier work
[8] = test system: patients with cholestatic pruritus; details: two studies; cited from earlier work

Q: With `CCCC[C@]1(CC)CS(=O)(=O)c2cc(CNC(CC(=O)O)CC(=O)O)c(OC)cc2[C@@H](c2ccccc2)N1` [GSK2330672] as the compound, how does the “diarrhea (most common side effect), subjects” value [1] read?
A: 33%

Q: What about the “reductions in itch scores (1-10 numerical rating scale, PBC-40 itch domain score, 5-D itch scale) vs placebo” value [1] of the same compound?
A: significantly greater reductions in itch scores

Q: Which “severe pruritus, patients” value ([2]; 10 mg arm) does the source give for `CC[C@H]1[C@@H](O)[C@@H]2[C@H](CC[C@]3(C)[C@@H]([C@H](C)CCC(=O)O)CC[C@@H]23)[C@@]2(C)CC[C@@H](O)C[C@@H]12` [OCALIVA, 6α-ethylchenodeoxycholic acid] here?
A: 23%

Q: What about the “severe pruritus, patients” value ([2]; titration arm) of the same compound?
A: 19%

Q: Which results are given for `CCO[C@H](COc1ccc(C(F)(F)F)cc1)CSc1ccc(OCC(=O)O)c(C)c1` [Seladelpar, [4-({(2R)-2-ethoxy-3-[4-(trifluoromethyl)phenoxy]propyl}sulfanyl)-2-methylphenoxy]acetic acid]?
A: cases of asymptomatic increases in transaminases ([3]; 50 mg/day oral): one; cases of asymptomatic increases in transaminases ([3]; 200 mg/day oral): two; adverse events of pruritus on treatment ([3]; 50 or 200 mg/day oral): no adverse events of pruritus were reported; anti-cholestatic effect (primary endpoint ALP) ([3]; 50 or 200 mg/day oral, at least two weeks of treatment): a potent anti-cholestatic effect was observed; effect on cholestatic pruritus associated with PBC ([4]; 5 mg/day and 10 mg/day, 12 weeks): significantly reduced the cholestatic pruritus; pruritus VAS (0-100 scale), median ([4]; 5 mg/day, Visit 2 (Day 1)): 8; pruritus VAS (0-100 scale), median ([4]; 5 mg/day, Visit 3 (Week 1)): 10; pruritus VAS (0-100 scale), median ([4]; 5 mg/day, Visit 4 (Week 2)): 9; pruritus VAS (0-100 scale), median ([4]; 5 mg/day, Visit 5 (Week 4)): 10; pruritus VAS (0-100 scale), median ([4]; 5 mg/day, Visit 6 (Week 6)): 5; pruritus VAS (0-100 scale), median ([4]; 5 mg/day, Visit 7 (Week 8)): 7; pruritus VAS (0-100 scale), median ([4]; 5 mg/day, Visit 8 (Week 12)): 3; baseline median VAS ([4]; 10 mg group, n=19): 50 (range 5-90); median change in VAS ([4]; 10 mg group): −55%; pruritus VAS (0-100 scale), median ([4]; 10 mg/day, Visit 2 (Day 1)): 25; pruritus VAS (0-100 scale), median ([4]; 10 mg/day, Visit 3 (Week 1)): 13; pruritus VAS (0-100 scale), median ([4]; 10 mg/day, Visit 4 (Week 2)): 30; pruritus VAS (0-100 scale), median ([4]; 10 mg/day, Visit 5 (Week 4)): 20; pruritus VAS (0-100 scale), median ([4]; 10 mg/day, Visit 6 (Week 6)): 10; pruritus VAS (0-100 scale), median ([4]; 10 mg/day, Visit 7 (Week 8)): 15; pruritus VAS (0-100 scale), median ([4]; 10 mg/day, Visit 8 (Week 12)): 6; subjects discontinued for increased pruritus possibly related to PBC ([4]; 10 mg/day, after five days, subject entered with intense pruritus): One; baseline median VAS ([4]; 5/10 mg group, n=18): 15 (range 1-68); median change in VAS ([4]; 5/10 mg group): −50%; discontinuations related to seladelpar ([4]; at 26 weeks): no discontinuations related to seladelpar; serious adverse events due to pruritus ([4]; at 26 weeks): no serious adverse events due to pruritus; pruritus reported as an adverse event ([4]; at 26 weeks, 24/119 subjects): 20%; effect on cholestasis, transaminases, LDL-cholesterol, inflammation ([4]; doses as low as 5 mg/day, at 12 weeks): reversed cholestasis, decreased transaminases, decreased LDL-cholesterol, and reduced inflammation; improvement in disease (decrease in ALP and GGT) [5]: improvement in their disease

Q: With `C=C1CC[C@@]2(O)[C@H]3Cc4ccc(O)c5c4[C@@]2(CCN3CC2CC2)[C@H]1O5` [nalmefene] as the compound, how does the “reduction of cholestatic pruritus vs control intervention” value (shortened to “reduction of cholestatic pruritus”) [6] read?
A: more likely to reduce cholestatic pruritus than the control intervention

Q: Which “reduction of cholestatic pruritus” value [6] does the source give for `C=CCN1CC[C@]23c4c5ccc(O)c4O[C@H]2C(=O)CC[C@@]3(O)[C@H]1C5` [naloxone] here?
A: more likely to reduce cholestatic pruritus than the control intervention

Q: Which “reduction of cholestatic pruritus” value [6] does the source give for `O=C1CC[C@@]2(O)[C@H]3Cc4ccc(O)c5c4[C@@]2(CCN3CC2CC2)[C@H]1O5` [naltrexone] here?
A: more likely to reduce cholestatic pruritus than the control intervention

Q: With `CO[C@H]1/C=C/O[C@@]2(C)Oc3c(C)c(O)c4c(O)c(c(/C=N/N5CCN(C)CC5)c(O)c4c3C2=O)NC(=O)/C(C)=C\C=C\[C@H](C)[C@H](O)[C@@H](C)[C@@H](O)[C@@H](C)[C@H](OC(C)=O)[C@@H]1C` [rifampicin] as the compound, how does the “incidence of significant hepatitis” value [7] read?
A: 7.3%

Q: With `CN[C@H]1CC[C@@H](c2ccc(Cl)c(Cl)c2)c2ccccc21` [sertraline] as the compound, how does the “tolerability and reduction of itch intensity” value [8] read?
A: well tolerated and moderately effective
